Laboratory results reported in patent publication US12590100B2, “Tetrahydro-spiroindoline-pyrrolopyrrole-triones inhibitors of the NRF2-β-TrCP interaction for use in the treatment of fatty liver disease” (Universidad Autonoma De Madrid, priority 2021, dated 2026).

Experiments:
NRF2 [1] = test: NRF2 and HO-1 protein levels in MEFs (immunoblot); assay type: cell-based, mouse; details: SFN 10 μM
Procedure: (§1) FIG. 4. […] MEFs in serum-depleted conditions were subjected to (A-C) 1 μM, 3 μM, or 10 μM of PHAR and 10 μM of SFN as a positive control for 16 h; or (D-F) 10 μM of PHAR for the indicated times. In both experiments, 0.1% DMSO was used as a vehicle. A), representative immunoblots of NRF2, HO1, KEAP1, LAMINB, and GAPDH as loading controls. B) and C), densitometric analysis of NRF2 and HO1 protein levels of the representative immunoblots depicted in (A), expressed as a ratio of NRF2/LAMINB or HO1/GAPDH. The data is depicted as means±SEM (n=3). Statistical analysis was performed with one-way ANOVA followed by the Bonferroni test to check inter-group differences. *p<0.05; ***p<0.001 vs. 0. D), representative immunoblots of NRF2, HO1, KEAP1, LAMINB, and GAPDH as loading controls. E) and F), Densitometric analysis of NRF2 and HO1 protein levels of the representative immunoblots of (D), expressed as a ratio of NRF2/LAMINB or HO1/GAPDH. The data is depicted as means±SEM (n=3). Statistical analysis was performed with one-way ANOVA followed by the Bonferroni test to check inter-group differences. *p<0.05; ***p<0.001 vs. 0. G), Reporter MCF-7 c32 ARE-luc cells were subjected to 1 μM, 3 μM, or 9 μM of PHAR and 10 μM of SFN as a positive control. 0.1% DMSO was used as a vehicle. Luciferase activity was measured after 16 h of treatment. The data is depicted as means±SEM (n=3). Statistical analysis was performed with one-way ANOVA followed by the Bonferroni test to check inter-group differences. **p<0.01; ***p<0.001 vs. 0. H), MTT assay to evaluate cell viability/toxicity after treatments. I), Serum-deprived MEFs were subjected to 10 μM of PHAR. The mRNA levels of Hmox1, Nqo1, Aox1, Glc, and Gclm after 8 h of treatment were determined by means of pRT-PCR and normalized by means of average LaminB, Gapdh, and β-actin. The data is depicted as means±SEM (n=3). Statistical analysis was performed with the Student's T test. *p<0.05; **p<0.01 ***p<0.001 vs. 0.
In order to empirically determine if PHAR activates NRF2, mouse embryo fibroblasts (MEFs) were treated with several doses of the compound (1 μM, 3 μM, and […]) for 16 h and with 10 μM of sulforaphane (SFN), one of main electrophilic activators of NRF2, used as a positive control.
Moreover, a time course of NRF2 activation with PHAR (10 μM for 2, 4, and 8 h) or with SFN (10 μM, 8 h) was done as a positive control.

[2] = system: transcriptional activity of NRF2; test: ARE luciferase reporter assay in MCF-7 c32 ARE-LUC cells; assay type: cell-based; details: 9 μM, 16 h
Procedure: as §1, with “G), Reporter MCF-7 c32 ARE-luc cells were subjected to 1 μM, 3 μM, or 9 μM of PHAR and 10 μM of SFN as a positive control. 0.1% DMSO was used as a vehicle.” left out, “The data is depicted as means±SEM (n=3). Statistical analysis was performed with one-way ANOVA followed by the Bonferroni test to check inter-group differences. **p<0.01; ***p<0.001 vs. 0. H), MTT assay to evaluate cell viability/toxicity after treatments. I), Serum-deprived MEFs were subjected to 10 μM of PHAR.” left out, “The data is depicted as means±SEM (n=3). Statistical analysis was performed with the Student's T test. *p<0.05; **p<0.01 ***p<0.001 vs. 0.” left out

NRF2 [3] = test: NRF2 and HO-1 protein levels in mouse tissues after IP treatment; assay type: in vivo; details: C57BL/6 mice, single IP 50 mg/kg, 120 min
Procedure: FIG. 9. PHAR activates NRF2 and HO-1 in liver. A), UV and MS spectrum derived from the HPLC-MS analysis of PHAR dissolved in methanol for the identification of peaks associated with the compound. A blue rectangle surrounds the mass associated with PHAR. (B-D), the mice were treated with the vehicle (Tween-80+PBS, 1:13), 50 mg/kg of PHAR, or 50 mg/kg of SFN (saline) as a positive control by means of intraperitoneal (IP) injection for 2 hours. B), HPLC-MS UV and MS spectra derived from representative liver samples of both experimental groups used for determining PHAR levels in the liver 120 min after a single IP injection of 50 mg/kg. A blue rectangle surrounds the mass associated with PHAR. C), representative immunoblots showing NRF2, HO1, and LAMINB protein levels as the liver extract loading control. D), densitometric analysis of NRF2 protein levels of the representative immunoblots shown in (C), expressed as a ratio of NRF2/LAMINB. Statistical analysis was performed with one-way ANOVA followed by the Bonferroni test to compare inter-group differences. ***p<0.001 vs. vehicle. E) and F), the mice were treated daily with vehicle (Tween-80+PBS, 1:13) or 50 mg/kg of PHAR by means of intraperitoneal injection for 5 days. E), representative immunoblots showing NRF2, HO1, and LAMINB protein levels as loading control in brain, liver and kidney. F), densitometric analysis of NRF2 and HO1 protein levels in the liver tissue of the representative immunoblots shown in (E), expressed as a ratio of NRF2/LAMINB or HO1/LAMINB levels. Statistical analysis was performed with a Student t test to compare inter-group differences. **p<0.01 vs. vehicle.
Once the mechanism of action of PHAR was deciphered, the capacity thereof to induce NRF2 levels in a murine model was evaluated. C57BL/6 mice received a single intraperitoneal (IP) injection of 50 mg/kg PHAR (Tween-80+PBS, 1:13) or 50 mg/kg of SFN (saline) as a positive control. The UV spectrum derived from the HPLC-MS study of the PHAR compound dissolved in methanol alone helped the identification of the peak associated with the compound for subsequent identification in the tissue analysis. […] Taking this as a reference point, liver tissue analysis was performed to check for the presence of PHAR therein.
For this reason, C57BL/6 mice were treated daily by IP route for 5 days with 50 mg/kg of vehicle or 50 mg/kg of PHAR.

For `C[S+]([O-])CCCCN=C=S` (stereo not shown) [SFN, sulforaphane, reference compound], the NRF2 accumulation (NRF2 [1]; 16 h, PHAR 1, 3, 9 μM) was “accumulation induced by SFN”, the “NRF2 accumulation, time course” value (NRF2 [1]; PHAR 10 μM for 2, 4, 8 h, 8 h) was “induction generated by SFN” and the “increase in luciferase activity” value [2] was “similar”. For the same compound, the “liver NRF2 levels” value (NRF2 [3]) was “accumulation caused by SFN”.
